Results from PMC9516332 (Frontiers in Oncology, 2022).
Where two headings read alike, the source gives them in different places.

Experiments:
[1] = target: panel of 255 wild-type kinases (Homo sapiens, UniProt P06239); settings: cited from earlier work
[2] = target: panel of 255 wild-type kinases (Homo sapiens, UniProt P11802); settings: cited from earlier work
[3] = target: panel of 255 wild-type kinases (Homo sapiens, UniProt P45984); settings: cited from earlier work
[4] = target: panel of 255 wild-type kinases (Homo sapiens, UniProt P57059); settings: cited from earlier work
[5] = target: T1, panel of 255 wild-type kinases (Homo sapiens, UniProt Q05513); settings: cited from earlier work
T1 sequence (Q05513 1-592): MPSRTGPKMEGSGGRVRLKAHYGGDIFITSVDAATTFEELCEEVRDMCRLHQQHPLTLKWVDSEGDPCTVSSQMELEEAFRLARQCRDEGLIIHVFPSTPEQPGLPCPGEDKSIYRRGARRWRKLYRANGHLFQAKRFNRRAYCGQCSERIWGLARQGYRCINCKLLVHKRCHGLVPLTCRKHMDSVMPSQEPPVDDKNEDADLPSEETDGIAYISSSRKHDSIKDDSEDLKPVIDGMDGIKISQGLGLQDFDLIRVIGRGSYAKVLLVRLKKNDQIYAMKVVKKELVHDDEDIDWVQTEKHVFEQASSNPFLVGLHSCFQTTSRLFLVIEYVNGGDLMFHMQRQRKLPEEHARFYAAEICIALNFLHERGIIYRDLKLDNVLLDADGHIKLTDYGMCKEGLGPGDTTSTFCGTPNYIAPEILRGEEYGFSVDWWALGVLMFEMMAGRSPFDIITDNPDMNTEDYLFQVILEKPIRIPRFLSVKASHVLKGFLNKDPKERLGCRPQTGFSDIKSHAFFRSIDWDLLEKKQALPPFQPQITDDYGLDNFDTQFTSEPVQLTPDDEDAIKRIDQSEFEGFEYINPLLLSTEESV

[6] = target: panel of 255 wild-type kinases (Homo sapiens, UniProt Q16816); settings: cited from earlier work
[7] = target: panel of 255 wild-type kinases (Homo sapiens, UniProt Q96RG2); settings: cited from earlier work
[8] = target: panel of 255 wild-type kinases (Homo sapiens, UniProt Q9P1W9); settings: cited from earlier work
[9] = target: panel of 255 wild-type kinases (Homo sapiens, UniProt Q9UBS0); settings: cited from earlier work
[10] = kinase LCK, 1 µmol/L single concentration, ref DOI: 10.1158/1535-7163.MCT-18-0877
[11] = CDK4/CycD3 kinase assay, 1 µmol/L single concentration, ref DOI: 10.1158/1535-7163.MCT-18-0877
[12] = kinase JNK2, 1 µmol/L single concentration, ref DOI: 10.1158/1535-7163.MCT-18-0877
[13] = kinase SIK, 1 µmol/L single concentration, ref DOI: 10.1158/1535-7163.MCT-18-0877
[14] = kinase PKCζ, 1 µmol/L single concentration, ref DOI: 10.1158/1535-7163.MCT-18-0877
[15] = kinase PHKG1, 1 µmol/L single concentration, ref DOI: 10.1158/1535-7163.MCT-18-0877
[16] = PASK, 1 µmol/L single concentration, ref DOI: 10.1158/1535-7163.MCT-18-0877
[17] = kinase PIM2, 1 µmol/L single concentration, ref DOI: 10.1158/1535-7163.MCT-18-0877
[18] = p70S6Kβ, 1 µmol/L single concentration, ref DOI: 10.1158/1535-7163.MCT-18-0877
[19] = kinase LCK, 1 µmol/L single concentration, ref DOI: 10.1371/journal.pone.0092146
[20] = CDK4/CycD3 kinase assay, 1 µmol/L single concentration, ref DOI: 10.1371/journal.pone.0092146
[21] = kinase JNK2, 1 µmol/L single concentration, ref DOI: 10.1371/journal.pone.0092146
[22] = kinase SIK, 1 µmol/L single concentration, ref DOI: 10.1371/journal.pone.0092146
[23] = kinase PKCζ, 1 µmol/L single concentration, ref DOI: 10.1371/journal.pone.0092146
[24] = kinase PHKG1, 1 µmol/L single concentration, ref DOI: 10.1371/journal.pone.0092146
[25] = PASK, 1 µmol/L single concentration, ref DOI: 10.1371/journal.pone.0092146
[26] = kinase PIM2, 1 µmol/L single concentration, ref DOI: 10.1371/journal.pone.0092146
[27] = p70S6Kβ, 1 µmol/L single concentration, ref DOI: 10.1371/journal.pone.0092146

SMILES | %-inhibition at 1 µmol/L, LCK [1, 10] | %-inhibition CDK4/CycD3 [2, 11] | %-inhibition at 1 µmol/L, JNK2 [3, 12] | %-inhibition at 1 µmol/L, SIK [4, 13] | %-inhibition at 1 µmol/L, PKCζ [5, 14] | %-inhibition at 1 µmol/L, PHKG1 [6, 15] | %-inhibition, PASK [7, 16] | %-inhibition at 1 µmol/L, PIM2 [8, 17] | %-inhibition, p70S6Kβ [9, 18] | IC50 (134 cancer cell lines) | %-inhibition at 1 µmol/L, LCK [1, 19] | %-inhibition CDK4/CycD3 [2, 20] | %-inhibition at 1 µmol/L, JNK2 [3, 21] | %-inhibition at 1 µmol/L, SIK [4, 22] | %-inhibition at 1 µmol/L, PKCζ [5, 23] | %-inhibition at 1 µmol/L, PHKG1 [6, 24] | %-inhibition, PASK [7, 25] | %-inhibition at 1 µmol/L, PIM2 [8, 26] | %-inhibition, p70S6Kβ [9, 27] | further results
CC#CC(=O)N1CCC[C@H]1c1nc(-c2ccc(C(=O)Nc3ccccn3)cc2)c2c(N)nccn12 [acalabrutinib] | 7% | -13% | -1.85% | 0.256% | -5.44% | -4% | -5.37% | -17% | -14% | – | – | – | – | – | – | – | – | – | – | –
CCc1cc2c(cc1N1CCC(N3CCOCC3)CC1)C(C)(C)c1[nH]c3cc(C#N)ccc3c1C2=O [alectinib] | 20% | -1.89% | -0.468% | 12% | 10% | 78% | -2.6% | 2.36% | 9% | – | – | – | – | – | – | – | – | – | – | –
COc1cc(N2CCC(N3CCN(C)CC3)CC2)ccc1Nc1ncc(Cl)c(Nc2ccccc2P(C)(C)=O)n1 [brigatinib] | – | – | – | – | – | – | – | – | – | – | – | – | – | – | – | – | – | – | – | %-inhibition at 1 µmol/L, LCK [1]: 77%; %-inhibition CDK4/CycD3 [2]: 40%; %-inhibition at 1 µmol/L, JNK2 [3]: 50%; %-inhibition at 1 µmol/L, SIK [4]: 99%; %-inhibition at 1 µmol/L, PKCζ [5]: 5%; %-inhibition at 1 µmol/L, PHKG1 [6]: 96%; %-inhibition, PASK [7]: -5%; %-inhibition at 1 µmol/L, PIM2 [8]: -11%; %-inhibition, p70S6Kβ [9]: 98%
Cc1cc(Nc2ncc(Cl)c(Nc3ccccc3S(=O)(=O)C(C)C)n2)c(OC(C)C)cc1C1CCNCC1 [ceritinib] | 6% | 4.63% | 16% | 15% | 14% | 91% | 1.28% | -8% | 70% | 3850 nM | – | – | – | – | – | – | – | – | – | –
O=C(c1ccc(F)c(F)c1Nc1ccc(I)cc1F)N1CC(O)([C@@H]2CCCCN2)C1 [cobimetinib] | -3% | 0.294% | -2.51% | 0.384% | 9% | 3% | 1.07% | -4.45% | 5.59% | 56 nM | – | – | – | – | – | – | – | – | – | –
C[C@@H](Oc1cc(-c2cnn(C3CCNCC3)c2)cnc1N)c1c(Cl)ccc(F)c1Cl [crizotinib] | – | – | – | – | – | – | – | – | – | – | 98% | 7% | -2.59% | 26% | 9% | 2.74% | 1% | -5.28% | 6% | –
CC(C)(C)c1nc(-c2cccc(NS(=O)(=O)c3c(F)cccc3F)c2F)c(-c2ccnc(N)n2)s1 [dabrafenib] | – | – | – | – | – | – | – | – | – | 1080 nM | 83% | 23% | -0.947% | 100% | 5% | -0.59% | 1.12% | 0.238% | -0.554% | –
C=CC(=O)N1CCC[C@@H](n2nc(-c3ccc(Oc4ccccc4)cc3)c3c(N)ncnc32)C1 [ibrutinib] | 100% | 4% | -2.83% | 8% | 10% | 1.53% | -0.0437% | -5% | 0.87% | – | – | – | – | – | – | – | – | – | – | –
CO[C@@H]1[C@H](N(C)C(=O)c2ccccc2)C[C@H]2O[C@]1(C)n1c3ccccc3c3c4c(c5c6ccccc6n2c5c31)C(=O)NC4 [midostaurin] | 91% | -1.1% | 8% | 99% | -3.41% | 97% | 6% | -9% | 69% | – | – | – | – | – | – | – | – | – | – | –
C=CC(=O)Nc1cc(Nc2nccc(-c3cn(C)c4ccccc34)n2)c(OC)cc1N(C)CCN(C)C [osimertinib] | 3.62% | 2.42% | -2.75% | 22% | 9.52% | 38% | 2.58% | -5.45% | 20% | – | – | – | – | – | – | – | – | – | – | –
CC(=O)Nc1cccc(-n2c(=O)n(C3CC3)c(=O)c3c(Nc4ccc(I)cc4F)n(C)c(=O)c(C)c32)c1 [trametinib] | – | – | – | – | – | – | – | – | – | 76 nM | -7% | 5.62% | -4.73% | -3% | 4.31% | -2.24% | -0.187% | -4% | -1% | –
CCCS(=O)(=O)Nc1ccc(F)c(C(=O)c2c[nH]c3ncc(-c4ccc(Cl)cc4)cc23)c1F [vemurafenib] | – | – | – | – | – | – | – | – | – | > 31600 nM | 81% | -3.26% | -0.0632% | 24% | 13% | -0.913% | 2.35% | -2% | 0.235% | –
